Results as given in PMC11152574, “A parameterized two-domain thermodynamic model explains diverse mutational effects on protein allostery” (eLife, 2024).

Target: TetR(B) (Escherichia coli, UniProt P04483)
Test: GFP reporter induction in E. coli, Bayesian fit of two-domain thermodynamic model
Assay type: cell-based
Details: 37 °C; LB culture; apparent Kd inferred from in vivo induction curve, K of active LBD set to 1 nM; order-of-magnitude model estimate, not a direct binding measurement; unreliable
Method: GFP reporter induction in E. coli, Bayesian fit of two-domain thermodynamic model on TetR(B) | apparent dissociation constant of WT TetR to ligand is calculated as […]

Sequence of TetR(B) (P04483 whole entry, looked up): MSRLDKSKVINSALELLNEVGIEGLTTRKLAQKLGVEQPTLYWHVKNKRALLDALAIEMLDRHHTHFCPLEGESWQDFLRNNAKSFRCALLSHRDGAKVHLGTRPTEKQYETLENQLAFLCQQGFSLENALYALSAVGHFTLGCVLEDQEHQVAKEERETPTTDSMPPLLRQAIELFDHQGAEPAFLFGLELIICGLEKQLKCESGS

## Cc1c2c(c(O)c3c(O)cccc13)C(=O)[C@]1(O)C(=O)C(C(N)=O)=C(O)[C@@H](N(C)C)[C@@H]1C2 [anhydrotetracycline]
  K apparent WT: 27.1 nM
